Source: patent US20240199571A1, “THIOPHENE COMPOUND AND APPLICATION THEREOF” (MEDSHINE DISCOVERY INC., priority 2021, published 2024)
Counter-ions that a name gives are not always drawn.

Legend:
human LSD1 = human LSD1 (Homo sapiens (Human), UniProt O60341); experiment: Experiment 1A: in vitro LSD1 enzyme activity, enzyme-coupled fluorescence (HRP/Amplex Red), H3K4me peptide 20 μM (Wuhan Heyan); type: biochemical; settings: histone H3K4me peptide 20 μM
Description: Experiment 1A: Evaluation of Enzyme Activity
Testing unit: Wuhan Heyan Biomedical Technology Co., Ltd.
The purpose of the assay was to test the in vitro inhibitory activity of the compounds against LSD1. The enzyme used in the assay was human LSD1, and the standard substrate was histone H3K4me peptide (20 μM). The activity of the compounds was determined by the enzyme-coupling fluorescent method by the combined detection of H2O2 generated after the reaction of LSD1 by horseradish peroxidase (HRP) and the fluorescent reagent Amplex Red. Starting from 10 μM, the compounds were 3-fold diluted to detect the IC50 values of the compounds at 10 concentrations. The enzyme and substrate were incubated for 30 minutes before the compound was added to the substrate to start the reaction. Fluorescence detector: EnVision, excitation wavelength: Ex/Em=530/590 nM.

NCI-H1417 cells = experiment: Experiment 2: inhibition of NCI-H1417 cell proliferation (CellTiter-Glo, 10 days); type: cell-based; settings: Homo sapiens, 240 h, 10 days incubation
How it was run: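 Cells at 1000 per well exposed to 10-point 3-fold dilutions from 10 μM top concentration for 10 days. Viability by CellTiter-Glo luminescence; inhibition normalized to max/min controls, IC50 from four-parameter fit.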

[1] = Experiment 3: pharmacokinetic evaluation in CD-1 mice (IV and oral); type: in vivo; settings: mouse, plasma, female CD-1 mice
How it was run: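 Male/female CD-1 mice aged 7-9 weeks, two per route, received single doses of 1 mg/kg IV or 2 mg/kg oral gavage in 10% DMSO/90% of 10% HP-β-cyclodextrin. Plasma was sampled from 0.083 (IV) or 0.25 (PO) to 24 h. Methanol-precipitated samples were measured by LC-MS/MS to derive Cmax, CL, T1/2, Vdss, AUC0-last and F.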

COc1ccc(-c2sc(C(=O)N3CC[C@H](N)C3)cc2-c2ccc(C#N)c(F)c2)cc1F [Hydrochloride of compound 7]
IC50 (human LSD1): 0.121 µM | IC50 (NCI-H1417 cells): 0.0204 µM | clearance ([1]; IV 1 mg/kg, read-out: Clearance rate CL): 1.25 L/h/kg | half-life ([1]; IV 1 mg/kg, read-out: Half life T1/2 (IV, h) (converted)): 3.74 h | Vd ([1]; IV 1 mg/kg, read-out: Volume of distribution at steady state Vdss): 6.19 L/kg | bioavailability ([1]; PO 2 mg/kg vs IV 1 mg/kg, read-out: Bioavailability F (%)): 52.4% | AUC(0-t) ([1]; PO 2 mg/kg, read-out: Area under drug-time curve AUC0-last PO): 1890 nM·h | Cmax ([1]; single dose, oral 2 mg/kg, read-out: Peak concentration Cmax): 0.176 µM
